Each structure is given as a SMILES string.

This note sets out measurements from patent US10328141B2, “Synthetic vaccines against Streptococcus pneumoniae type 1” (MAX-PLANCK-GESELLSCHAFT ZUR FÖRDERUNG DER WISSENSCHAFTEN …, priority 2013, dated 2019).

In assay [1] the test system is rabbit anti-Streptococcus pneumoniae type 1 typing serum. Description: Glycan microarray binding of rabbit anti-SP1 typing serum to immobilised saccharides. The following applies: saccharides coated on modified GAPS II or CodeLink NHS slides; FIGS. 6-8. How it is done: (§1) Microarray slides coated with the saccharides of general formula (I) were synthesized by conjugating the saccharides of general formula (I) to said modified microarray slides, and incubated with rabbit anti-Streptococcus pneumoniae type 1 typing serum […] in the presence or absence of native Streptococcus pneumoniae type 1 polysaccharide.
Maleimide-functionalized microarrays were produced by submerging amine-coated slides (GAPS II slides, Corning) in 6-maleimidohexanoic acid N-hydroxysuccinimide ester (2 mM) in dry DMF with diisopropylethylamine (2.5% v/v) for 24 h at room temperature. Slides were washed three times with water and three times with ethanol, centrifuged to dryness, and stored under argon until spotting. Diluted saccharides of general formula (I) were printed onto the modified microarray slides at 0.4 nL per spot by an automatic piezoelectric arraying robot (Scienion, Berlin, Germany). For completion of the immobilization reaction, printed slides were stored for 24 h in a humidified chamber.
Microarray slides were washed three times with water. Unreacted maleimide was quenched by submerging the slides in β-mercaptoethanol (0.1%, v/v) in PBS for 1 h at room temperature. Slides were washed three times with water and with ethanol, centrifuged to dryness, and blocked with BSA (1%, w/v) in PBS for 1 h at room temperature. […]

In assay [2] the test system is human pneumococcal serum 007sp. Description: Glycan microarray binding of human pneumococcal reference serum 007sp to immobilised saccharides. Conditions: saccharides coated on modified CodeLink NHS slides; pooled sera of 287 humans immunized with Pneumovax; FIG. 5. How it is done: as §1
[…] Slides were washed three times with water and three times with ethanol, centrifuged to dryness, and stored under argon until spotting. Diluted saccharides of general formula (I) were printed onto the modified microarray slides at 0.4 nL per spot by an automatic piezoelectric arraying robot (Scienion, Berlin, Germany). For completion of the immobilization reaction, printed slides were stored for 24 h in a humidified chamber.
Microarray slides were washed three times with water. Unreacted maleimide was quenched by submerging the slides in β-mercaptoethanol (0.1%, v/v) in PBS for 1 h at room temperature. Slides were washed three times with water and with ethanol, centrifuged to dryness, and blocked with BSA (1%, w/v) in PBS for 1 h at room temperature. Blocked slides were washed (2×PBS, 3×water), centrifuged, and incubated with the sera dilutions.
CodeLink NHS slides were incubated for 24 h (1% w/v in PBS) at 4° C. […]

For the compound `CC(=O)N[C@H]1[C@@H](O[C@@H]2[C@H](O)[C@@H](O)[C@@H](O[C@H]3[C@@H](O)[C@@H](C(=O)O)O[C@H](O)[C@@H]3O)O[C@@H]2C(=O)O)O[C@H](C)[C@H](N)[C@@H]1O` [α-2,4,6-trideoxy-4-amino-D-GalNAc-(1→4)-α-D-GalAp-(1→3)-α-D-GalAp], the “binding of rabbit anti-Streptococcus pneumoniae type 1 typing serum to saccharide structure on microarray slides” value in assay [1] is on record as “bound”. Also, the “binding of human pneumococcal serum 007sp to saccharide structure on microarray slides” value in assay [2] is given as “bound”.

Consider `O=C(O)[C@H]1O[C@H](O[C@H]2[C@@H](O)[C@@H](C(=O)O)O[C@H](O)[C@@H]2O)[C@H](O)[C@@H](O)[C@H]1O` [α-D-GalAp-(1→3)-α-D-GalAp], for which the “binding of rabbit anti-Streptococcus pneumoniae type 1 typing serum to saccharide structure on microarray slides” value in assay [1] was “bound”. In addition, in assay [2], the “binding of human pneumococcal serum 007sp to saccharide structure on microarray slides” value is recorded as “bound”.
